Three molecules from patent US7074789B2, “Kinase inhibitors” (Amgen Inc., priority 1999, dated 2006) can be followed below.

Common to all, as to format: biochemical
One assay concerns the target T1, AKT (Homo sapiens, UniProt Q9Y243).
T1 construct: Kinases are expressed as either kinase domains or full length constructs; made in house
The assay is described as follows: Kinase inhibition assay (33P transfer), AKT. The settings on record: Table 2, kinase inhibition class; read-out: AKT3-1. The procedure, abridged:
(§1)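 Kinase domain or full-length constructs, GST- or polyHis-tagged, expressed in E. coli or baculovirus-High Five cells, sometimes with regulatory polypeptides. Activity measured as 33PO4 transfer from ATP to plate-bound poly(Glu,Tyr) 4:1 or poly(Arg,Ser) 3:1; after incubation, plates washed with 0.5% phosphoric acid and counted by liquid scintillation.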

The target of another assay is T2, Ret-1 (Homo sapiens, UniProt P07949).
T2 construct: Kinases are expressed as either kinase domains or full length constructs; made in house
The assay is described as follows: Kinase inhibition assay (33P transfer), Ret. The settings on record: Table 6, Ret-1 kinase inhibition class.

A further assay has as its target T3, Src (Homo sapiens, UniProt P12931).
T3 construct: Kinases are expressed as either kinase domains or full length constructs; made in house
Put plainly: Kinase inhibition assay (33P transfer), Src. The settings on record: Table 6, Src-1 kinase inhibition class. The procedure, abridged: (§2)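 Steps: coat wells with poly(Glu,Tyr) 4:1 or poly(Arg,Ser) 3:1; add purified kinase, [33P]ATP and inhibitor; incubate; wash with 0.5% phosphoric acid; add liquid scintillant; count. IC50 corresponds to half-maximal reduction of bound 33P.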

The target in the next assay is T4, Kdr (Homo sapiens, UniProt P35968).
T4 construct: Kinases are expressed as either kinase domains or full length constructs; made in house
Put plainly: Kinase inhibition assay (33P transfer), Kdr. The settings on record: read-out: KDR-1. The procedure, abridged:
as §1

The target in the next assay is T5, PDGFRB (Homo sapiens, UniProt P09619).
T5 construct: Kinases are expressed as either kinase domains or full length constructs; made in house
The assay is described as follows: Kinase inhibition assay (33P transfer), PDGFRB. The settings on record: read-out: PDGFRB-1.

The target of a further assay is T6, Hck-1 (Homo sapiens, UniProt P08631).
T6 construct: Kinases are expressed as either kinase domains or full length constructs; made in house
Put plainly: Kinase inhibition assay (33P transfer), Hck. Conditions: Table 6, Hck-1 kinase inhibition class.

Another assay has as its target T7, Lck (Homo sapiens, UniProt P06239).
T7 construct: Kinases are expressed as either kinase domains or full length constructs; made in house
The assay is described as follows: Kinase inhibition assay (33P transfer), Lck. Conditions: read-out: Lck-1. The procedure, abridged: as §1

The target of the next assay is T8, Flt-1 (Homo sapiens, UniProt P17948).
T8 construct: Kinases are expressed as either kinase domains or full length constructs; made in house
The assay is described as follows: Kinase inhibition assay (33P transfer), Flt-1. The essentials:
as §2

The target in the next assay is T9, FGFR1 (Homo sapiens, UniProt P11362).
T9 construct: Kinases are expressed as either kinase domains or full length constructs; made in house
Put plainly: Kinase inhibition assay (33P transfer), FGFR1. Conditions: read-out: FGFR1-1.

In a further assay the target is T10, EGFR (Homo sapiens, UniProt P00533).
T10 construct: Kinases are expressed as either kinase domains or full length constructs; made in house
Put plainly: Kinase inhibition assay (33P transfer), EGFR. The settings on record: Table 2, kinase inhibition class; read-out: EGFR-1. The procedure, abridged:
as §2

In the next assay the target is T11, c-Met (Homo sapiens, UniProt P08581).
T11 construct: Kinases are expressed as either kinase domains or full length constructs; made in house
The assay is described as follows: Kinase inhibition assay (33P transfer), c-Met. Conditions: Table 2, kinase inhibition class; read-out: Met-1. The procedure, abridged:
as §2

The next assay deals with T12, Zap-70 (Homo sapiens, UniProt P43403).
T12 construct: Kinases are expressed as either kinase domains or full length constructs; made in house
T12 sequence (P43403 1-619): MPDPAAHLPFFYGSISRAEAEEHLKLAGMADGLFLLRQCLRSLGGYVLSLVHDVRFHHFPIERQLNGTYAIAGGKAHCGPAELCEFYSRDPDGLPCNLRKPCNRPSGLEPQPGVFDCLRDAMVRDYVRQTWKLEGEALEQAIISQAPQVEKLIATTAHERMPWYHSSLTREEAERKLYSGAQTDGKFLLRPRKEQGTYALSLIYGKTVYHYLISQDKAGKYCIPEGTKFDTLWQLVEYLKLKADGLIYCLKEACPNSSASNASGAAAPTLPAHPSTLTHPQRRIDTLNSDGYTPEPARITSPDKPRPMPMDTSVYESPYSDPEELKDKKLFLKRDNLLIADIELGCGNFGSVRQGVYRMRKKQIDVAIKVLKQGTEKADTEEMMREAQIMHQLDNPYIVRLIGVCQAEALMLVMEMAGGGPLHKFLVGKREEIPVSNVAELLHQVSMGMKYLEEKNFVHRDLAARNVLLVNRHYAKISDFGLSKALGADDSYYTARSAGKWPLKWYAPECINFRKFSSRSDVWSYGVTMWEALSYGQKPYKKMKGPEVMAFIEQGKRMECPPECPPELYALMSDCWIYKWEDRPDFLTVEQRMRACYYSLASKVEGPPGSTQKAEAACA
The assay is described as follows: Kinase inhibition assay (33P transfer), Zap-70. The settings on record: read-out: Zap-1. The essentials:
as §1

For another assay, the target named is T13, IGFR-1 (Homo sapiens, UniProt P08069).
T13 construct: Kinases are expressed as either kinase domains or full length constructs; made in house
Put plainly: Kinase inhibition assay, IGFR-1 (Table 2). The settings on record: Table 2, kinase inhibition class.

For the next assay, the target named is T14, Lyn (Homo sapiens, UniProt P07948).
T14 construct: Kinases are expressed as either kinase domains or full length constructs; made in house
The assay is described as follows: Kinase inhibition assay (33P transfer), Lyn. Conditions: Table 6, Lyn-1 kinase inhibition class. The essentials:
as §2

A further assay concerns the target T15, Fyn (Homo sapiens, UniProt P06241).
T15 construct: Kinases are expressed as either kinase domains or full length constructs; made in house
The assay is described as follows: Kinase inhibition assay (33P transfer), Fyn. Conditions: read-out: Fyn-1. The essentials: as §2

The target in the next assay is T16, Itk (Homo sapiens, UniProt Q08881).
T16 construct: Kinases are expressed as either kinase domains or full length constructs; made in house
T16 sequence (Q08881 1-620): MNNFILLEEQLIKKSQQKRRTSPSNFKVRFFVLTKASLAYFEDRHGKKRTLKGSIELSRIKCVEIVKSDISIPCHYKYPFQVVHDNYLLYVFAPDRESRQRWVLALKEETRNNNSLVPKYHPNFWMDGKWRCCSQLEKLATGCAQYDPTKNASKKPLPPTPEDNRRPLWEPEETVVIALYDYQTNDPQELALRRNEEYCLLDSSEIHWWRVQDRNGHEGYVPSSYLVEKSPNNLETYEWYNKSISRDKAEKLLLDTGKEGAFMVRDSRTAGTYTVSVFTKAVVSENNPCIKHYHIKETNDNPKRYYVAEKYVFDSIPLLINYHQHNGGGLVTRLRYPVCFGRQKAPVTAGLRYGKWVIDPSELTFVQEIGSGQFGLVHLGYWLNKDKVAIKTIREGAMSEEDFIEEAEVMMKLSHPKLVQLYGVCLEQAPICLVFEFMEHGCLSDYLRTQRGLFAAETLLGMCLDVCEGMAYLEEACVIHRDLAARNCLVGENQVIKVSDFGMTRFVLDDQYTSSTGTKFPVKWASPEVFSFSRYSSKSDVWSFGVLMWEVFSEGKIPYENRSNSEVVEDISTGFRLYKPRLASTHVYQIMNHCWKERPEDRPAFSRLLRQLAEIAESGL
The assay is described as follows: Kinase inhibition assay (33P transfer), Itk. The settings on record: read-out: Itk-1. The procedure, abridged:
as §2

The target of the next assay is T17, Tek (Homo sapiens, UniProt Q02763).
T17 construct: Kinases are expressed as either kinase domains or full length constructs; made in house
The assay is described as follows: Kinase inhibition assay (33P transfer), Tek. Conditions: read-out: Tek-1. The essentials: as §2

The next assay deals with T18, ErbB4 (Homo sapiens, UniProt Q15303).
T18 construct: Kinases are expressed as either kinase domains or full length constructs; made in house
Put plainly: Kinase inhibition assay (33P transfer), ErbB4. Conditions: read-out: ErbB4-1.

A further assay has as its target T19, ErbB2 (Homo sapiens, UniProt P04626).
T19 construct: Kinases are expressed as either kinase domains or full length constructs; made in house
The assay is described as follows: Kinase inhibition assay (33P transfer), ErbB2. Conditions: read-out: ErbB2-2. The procedure, abridged:
as §2

T10 sequence (P00533 25-1210, species assumed): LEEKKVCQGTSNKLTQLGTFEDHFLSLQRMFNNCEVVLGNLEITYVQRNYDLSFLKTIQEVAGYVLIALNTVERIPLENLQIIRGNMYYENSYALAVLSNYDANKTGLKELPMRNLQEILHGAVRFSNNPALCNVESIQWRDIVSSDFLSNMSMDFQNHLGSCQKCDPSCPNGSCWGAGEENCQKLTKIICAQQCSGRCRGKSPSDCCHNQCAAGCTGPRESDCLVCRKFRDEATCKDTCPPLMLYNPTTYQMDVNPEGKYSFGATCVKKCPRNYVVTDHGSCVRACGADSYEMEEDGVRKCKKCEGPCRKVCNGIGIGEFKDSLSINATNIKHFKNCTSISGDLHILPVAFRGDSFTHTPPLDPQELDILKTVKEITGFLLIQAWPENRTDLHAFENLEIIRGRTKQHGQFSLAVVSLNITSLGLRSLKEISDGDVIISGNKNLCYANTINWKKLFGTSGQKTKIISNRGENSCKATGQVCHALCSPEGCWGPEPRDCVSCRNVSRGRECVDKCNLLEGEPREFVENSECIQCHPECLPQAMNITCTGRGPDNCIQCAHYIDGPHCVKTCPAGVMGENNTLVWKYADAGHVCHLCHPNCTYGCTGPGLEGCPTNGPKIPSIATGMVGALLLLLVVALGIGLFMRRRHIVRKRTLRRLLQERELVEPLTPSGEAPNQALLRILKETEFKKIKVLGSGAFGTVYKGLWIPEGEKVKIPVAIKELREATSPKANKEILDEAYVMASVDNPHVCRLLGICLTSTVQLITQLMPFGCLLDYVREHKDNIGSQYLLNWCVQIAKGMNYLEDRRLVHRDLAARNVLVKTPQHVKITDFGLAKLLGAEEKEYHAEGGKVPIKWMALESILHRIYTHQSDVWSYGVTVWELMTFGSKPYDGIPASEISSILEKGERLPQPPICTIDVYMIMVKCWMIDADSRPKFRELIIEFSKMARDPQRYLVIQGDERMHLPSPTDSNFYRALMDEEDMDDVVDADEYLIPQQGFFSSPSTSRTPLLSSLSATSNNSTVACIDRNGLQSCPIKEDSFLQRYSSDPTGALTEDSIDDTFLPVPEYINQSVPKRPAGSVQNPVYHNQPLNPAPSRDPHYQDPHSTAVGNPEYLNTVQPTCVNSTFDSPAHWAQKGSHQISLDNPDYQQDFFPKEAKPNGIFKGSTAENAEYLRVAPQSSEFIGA
T9 sequence (P11362 22-822, species assumed): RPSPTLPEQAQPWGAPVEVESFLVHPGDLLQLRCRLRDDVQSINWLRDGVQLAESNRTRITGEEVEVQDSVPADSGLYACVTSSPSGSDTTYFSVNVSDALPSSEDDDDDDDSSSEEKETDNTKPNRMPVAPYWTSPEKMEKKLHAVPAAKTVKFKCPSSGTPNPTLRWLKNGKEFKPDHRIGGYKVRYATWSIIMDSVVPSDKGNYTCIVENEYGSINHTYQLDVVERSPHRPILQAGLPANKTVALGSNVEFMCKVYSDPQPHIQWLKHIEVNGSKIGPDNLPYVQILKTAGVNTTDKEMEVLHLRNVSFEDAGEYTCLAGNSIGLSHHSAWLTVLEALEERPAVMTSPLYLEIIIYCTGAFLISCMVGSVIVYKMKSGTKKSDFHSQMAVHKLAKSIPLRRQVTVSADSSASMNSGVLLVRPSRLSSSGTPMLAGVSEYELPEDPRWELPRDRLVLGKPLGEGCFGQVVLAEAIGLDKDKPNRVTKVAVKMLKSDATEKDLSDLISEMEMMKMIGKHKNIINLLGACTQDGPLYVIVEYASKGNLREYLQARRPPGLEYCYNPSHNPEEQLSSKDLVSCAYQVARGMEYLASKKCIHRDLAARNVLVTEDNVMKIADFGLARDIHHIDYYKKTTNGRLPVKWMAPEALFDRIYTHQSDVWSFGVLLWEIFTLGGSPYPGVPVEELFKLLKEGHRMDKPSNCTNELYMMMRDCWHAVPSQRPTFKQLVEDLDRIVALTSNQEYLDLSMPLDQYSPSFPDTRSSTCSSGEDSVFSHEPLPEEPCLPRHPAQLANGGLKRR
T8 sequence (P17948 27-1338, species assumed): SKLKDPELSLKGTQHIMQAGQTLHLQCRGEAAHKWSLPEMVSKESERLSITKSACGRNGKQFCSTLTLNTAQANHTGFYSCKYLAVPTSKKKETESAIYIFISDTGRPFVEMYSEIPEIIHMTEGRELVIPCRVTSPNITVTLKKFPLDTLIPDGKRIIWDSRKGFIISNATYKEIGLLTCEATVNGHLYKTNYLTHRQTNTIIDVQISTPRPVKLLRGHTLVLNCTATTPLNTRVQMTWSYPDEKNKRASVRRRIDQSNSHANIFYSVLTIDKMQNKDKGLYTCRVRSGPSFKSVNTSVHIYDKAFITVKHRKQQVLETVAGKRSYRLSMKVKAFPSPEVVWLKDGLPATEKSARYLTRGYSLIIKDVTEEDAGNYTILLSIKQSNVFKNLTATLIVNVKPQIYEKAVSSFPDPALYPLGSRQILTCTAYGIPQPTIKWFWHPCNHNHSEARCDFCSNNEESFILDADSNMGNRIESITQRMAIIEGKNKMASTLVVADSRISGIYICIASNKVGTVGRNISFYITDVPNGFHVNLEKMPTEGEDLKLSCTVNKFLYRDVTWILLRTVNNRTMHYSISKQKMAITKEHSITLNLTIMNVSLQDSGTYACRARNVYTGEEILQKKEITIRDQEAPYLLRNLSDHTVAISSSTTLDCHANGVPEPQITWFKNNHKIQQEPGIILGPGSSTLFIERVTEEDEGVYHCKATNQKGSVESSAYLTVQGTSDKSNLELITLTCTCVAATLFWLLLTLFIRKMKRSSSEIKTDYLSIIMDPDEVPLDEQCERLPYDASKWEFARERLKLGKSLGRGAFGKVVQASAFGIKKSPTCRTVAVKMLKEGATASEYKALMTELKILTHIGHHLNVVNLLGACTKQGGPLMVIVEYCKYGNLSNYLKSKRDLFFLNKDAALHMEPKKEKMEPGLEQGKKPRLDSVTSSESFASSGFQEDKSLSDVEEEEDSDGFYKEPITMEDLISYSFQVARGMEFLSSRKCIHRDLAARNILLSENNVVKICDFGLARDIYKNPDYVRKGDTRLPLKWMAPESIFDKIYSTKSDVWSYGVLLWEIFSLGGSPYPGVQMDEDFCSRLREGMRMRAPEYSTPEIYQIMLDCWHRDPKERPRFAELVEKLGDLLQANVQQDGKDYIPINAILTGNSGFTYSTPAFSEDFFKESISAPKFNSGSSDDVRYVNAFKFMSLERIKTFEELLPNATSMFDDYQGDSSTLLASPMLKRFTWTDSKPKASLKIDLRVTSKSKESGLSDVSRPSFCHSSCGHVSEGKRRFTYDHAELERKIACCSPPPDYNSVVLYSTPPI
T15 sequence (P06241 whole entry, species assumed, the tested form may be a part): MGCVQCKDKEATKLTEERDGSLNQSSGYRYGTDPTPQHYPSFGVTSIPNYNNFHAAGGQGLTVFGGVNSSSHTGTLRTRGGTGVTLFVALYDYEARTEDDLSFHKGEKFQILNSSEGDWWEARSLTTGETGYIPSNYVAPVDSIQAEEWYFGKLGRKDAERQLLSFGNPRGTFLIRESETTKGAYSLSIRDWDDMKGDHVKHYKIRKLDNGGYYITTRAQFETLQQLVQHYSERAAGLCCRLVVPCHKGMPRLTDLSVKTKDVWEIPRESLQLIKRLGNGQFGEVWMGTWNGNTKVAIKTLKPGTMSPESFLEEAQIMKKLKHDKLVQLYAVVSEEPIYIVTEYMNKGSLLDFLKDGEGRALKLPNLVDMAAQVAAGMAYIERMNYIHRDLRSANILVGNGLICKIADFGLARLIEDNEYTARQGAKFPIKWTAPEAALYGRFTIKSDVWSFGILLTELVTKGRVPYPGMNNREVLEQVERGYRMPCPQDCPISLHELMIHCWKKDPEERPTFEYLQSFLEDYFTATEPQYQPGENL
T14 sequence (P07948 whole entry, species assumed, the tested form may be a part): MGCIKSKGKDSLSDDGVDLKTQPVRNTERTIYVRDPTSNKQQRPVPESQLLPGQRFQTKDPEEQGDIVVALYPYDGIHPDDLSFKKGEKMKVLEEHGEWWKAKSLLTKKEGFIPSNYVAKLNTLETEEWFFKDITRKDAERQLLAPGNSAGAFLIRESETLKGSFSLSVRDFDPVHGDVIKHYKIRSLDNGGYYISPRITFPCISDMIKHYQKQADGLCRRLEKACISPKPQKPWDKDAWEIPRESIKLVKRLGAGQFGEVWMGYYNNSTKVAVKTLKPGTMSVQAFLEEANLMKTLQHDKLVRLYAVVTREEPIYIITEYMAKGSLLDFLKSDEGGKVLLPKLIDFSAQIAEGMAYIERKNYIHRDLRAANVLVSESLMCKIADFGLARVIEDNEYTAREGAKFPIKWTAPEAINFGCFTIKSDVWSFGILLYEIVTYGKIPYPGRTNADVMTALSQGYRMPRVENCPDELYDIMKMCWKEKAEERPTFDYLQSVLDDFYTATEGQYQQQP
T6 sequence (P08631 whole entry, the tested form may be a part): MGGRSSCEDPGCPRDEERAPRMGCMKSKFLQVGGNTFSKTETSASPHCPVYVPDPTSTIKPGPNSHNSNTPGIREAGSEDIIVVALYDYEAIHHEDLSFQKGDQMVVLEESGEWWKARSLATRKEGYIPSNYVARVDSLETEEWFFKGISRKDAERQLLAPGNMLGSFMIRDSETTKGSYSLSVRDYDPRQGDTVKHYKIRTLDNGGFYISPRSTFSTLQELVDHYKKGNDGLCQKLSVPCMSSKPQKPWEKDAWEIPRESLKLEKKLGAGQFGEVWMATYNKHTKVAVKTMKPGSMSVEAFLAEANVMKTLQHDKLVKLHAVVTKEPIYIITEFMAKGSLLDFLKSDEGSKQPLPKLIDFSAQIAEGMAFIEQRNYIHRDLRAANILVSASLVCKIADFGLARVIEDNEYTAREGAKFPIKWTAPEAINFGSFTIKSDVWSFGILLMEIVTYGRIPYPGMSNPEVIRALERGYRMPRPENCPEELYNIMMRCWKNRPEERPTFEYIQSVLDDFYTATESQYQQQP

With `COc1cc(Nc2ncnc(-n3c(NCCc4ccccc4)nc4ccccc43)n2)cc(OC)c1OC` [Compound 509], the IC50 at AKT was above 9.04 µM; against Ret-1 it was below 0.804 µM; at Src, above 9.04 µM; at Kdr it was below 0.804 µM; at PDGFRB, 0.804 to 4.82 µM; against Hck-1, above 9.04 µM. Further, the IC50 on Lck was 0.804 to 4.82 µM; against Flt-1 it was 0.804 to 4.82 µM; at FGFR1, 0.804 to 4.82 µM; on EGFR it was 0.804 to 4.82 µM; at c-Met, above 9.04 µM; on Zap-70, above 9.04 µM. In addition, the IC50 is above 9.04 µM against IGFR-1; 0.804 to 4.82 µM against Lyn; above 9.04 µM at Fyn; 4.82 to 7.03 µM on Itk; 7.03 to 9.04 µM at Tek; 0.804 to 4.82 µM on ErbB4. Also, the IC50 on ErbB2 fell in the range of 4.82 to 7.03 µM.

As for `COc1cc(Nc2ncnc(N3c4ccccc4CC3C)n2)cc(OC)c1OC` (stereo not drawn) [Compound 610], the IC50 was above 11.4 µM at AKT; below 1.02 µM against Ret-1; 1.02 to 6.1 µM on Src; below 1.02 µM at Kdr; below 1.02 µM on PDGFRB; above 11.4 µM against Hck-1. Also, the IC50 on Lck was below 1.02 µM; against Flt-1 it was below 1.02 µM; at FGFR1, below 1.02 µM; on EGFR, 1.02 to 6.1 µM; on c-Met, 1.02 to 6.1 µM; on Zap-70, above 11.4 µM. Besides, the IC50 is 1.02 to 6.1 µM at IGFR-1; below 1.02 µM against Lyn; 1.02 to 6.1 µM on Fyn; 1.02 to 6.1 µM at Itk; 6.1 to 8.9 µM on Tek; 1.02 to 6.1 µM at ErbB4. In addition, the IC50 on ErbB2 is 1.02 to 6.1 µM.

As to `COc1cc(Nc2ncnc(-n3c(NCc4ccccc4Cl)nc4ccccc43)n2)cc(OC)c1OC` [Compound 943], the IC50 on AKT is above 8.69 µM; at Ret-1, below 0.772 µM; against Src, above 8.69 µM; on Kdr, below 0.772 µM; at PDGFRB it was below 0.772 µM; on Hck-1, above 8.69 µM. The IC50 at Lck is 0.772 to 4.63 µM; against Flt-1, 0.772 to 4.63 µM; at FGFR1, 0.772 to 4.63 µM; on EGFR, above 8.69 µM; on c-Met it was above 8.69 µM; on Zap-70 it was 4.63 to 6.76 µM. Besides, the IC50 at IGFR-1 was above 8.69 µM; against Lyn it was 0.772 to 4.63 µM; at Fyn, above 8.69 µM; on Itk, above 8.69 µM; on Tek, 6.76 to 8.69 µM; at ErbB4 it was 6.76 to 8.69 µM. The IC50 at ErbB2 is above 8.69 µM.
